Tests used:
bladder specimen = test: Test Example 3: isometric contraction test of bladder specimen from high-week-old male rats after repeated oral dosing; type: in vivo, rat; settings: Group A: 10 mg/kg oral once a day, 2 weeks; compared with Group C (dutasteride 0.3 mg/kg); FIG. 9, 10
Text: High-week-old male rats (22-week-old; Charles River Laboratories Japan, Inc.) were examined and evaluated for the relationship between the test substances and the bladder and urethra contraction reaction. Since the rats are high-week-old, the rats are a model in which the prostate is predicted to be enlarged.
A test substance was orally administered to the high-week-old male rats repeatedly at a frequency of once a day over two (2) weeks, and then, from each rat, a bladder specimen was extracted. The bladder specimen was suspended at a resting tension of about 9.8 mN in a constant-temperature Magnus tube (37° C.) filled with a physiological salt solution aerated with 95% O2-5% CO2 gas and was subjected to an isometric contraction test by applying a square-wave electrical field stimulation (EFS, Amplitude; 0.3 ms, Frequency; 1, 2, 5, 10, 20 Hz, Duration; 5 s); or Carbachol (CCH, 100 nmol/L to 100 μmol/L) and KCl (40, 80 mmol/L).
Solvent group (control group): 0.5 v/v % Polysorbate 80 solution, 10 mL/kg (n=6) • Group A: Compound A, 10 mg/kg (n=6) • Group C: Compound C (dutasteride), 0.3 mg/kg (n=6)

[1] = test system: urination disorder model associated with diabetes; test: Test Example 4: urination disorder model associated with streptozocin-induced diabetes (cystometry, tissue weights, blood glucose, nomogram); type: in vivo, rat; settings: for Prostate, Dorsolateral prostate weight / Prostate, Ventral prostate weight: average ± SD; for Dorsolateral prostate (atrophy rate) / Seminal vesicle (atrophy rate) / Ventral prostate (atrophy rate) / Whole prostate (atrophy rate): relative to solvent group; for bladder contraction force on urination by nomogram analysis: in comparison with solvent group, FIG. 17
Protocol: As described below, as a urination disorder model, a urination disorder model associated with diabetes was prepared to evaluate the urination disorder. This model has no benign prostatic hyperplasia and is a model of a urination disorder associated with neuropathy and smooth muscle contraction disorder.
The body weights of rats (male, Crl:CD(SD), 5-week-old; Charles River Laboratories Japan, Inc.) were measured. After the rats were fasted overnight, the blood was collected from the caudal vein to measure the fasting blood glucose. On the basis of the body weight and the tasting blood glucose level, the rats were grouped or divided into two (2) groups by randomized, multivariable block allocation. The day after the rats were grouped, a first group received intraperitoneal administration of a citrate buffer (pH 4.5) (10 mL/kg) having a concentration of 0.1 mmol/L, and a second group received intraperitoneal administration of streptozocin (STZ; Sigma-Aldrich) (50 mg/kg). Streptozocin (STZ) was administered in the form of a solution of streptozocin having a concentration of 5 mg/mL in the citrate buffer.
About one (1) week after streptozocin (STZ) was administered, the body weight and the fasting blood glucose were measured. In the streptozocin (STZ) administration group (the second group), individuals having a fasting blood glucose level of not less than 300 mg/dL were used as animals with induced diabetes. These animals with induced diabetes are a model having no abnormality of the prostate (having no benign prostatic hyperplasia). On the basis of the body weight and the fasting blood glucose level, the animals (models) with induced diabetes were grouped or divided into three (3) groups by randomized, multivariable block allocation.
To the three model groups with induced diabetes, a 0.5 v/v % Polysorbate 80 solution (0.5% P) (10 mL/kg), the compound A (3 mg/kg), and the compound A (10 mg/kg) were orally administered, respectively, wherein the administration schedule in all groups was a frequency of once a day, only on weekdays, over four (4) weeks. Moreover, to the above-mentioned first group, a 0.5 v/v % Polysorbate 80 solution (0.5% P) (10 mL/kg) was orally administered in the same administration schedule (normal group). On the last day of administration, a cannula was inserted into and secured to the dome of the bladder under isoflurane anesthesia, and cystometry (Cystometogram, CMG) was conducted in the order of under awake condition and under urethane anesthesia to measure the intravesical pressure, the voided volume, and the residual urine volume. After the completion of the measurement, the blood was collected under deep isoflurane anesthesia, and then the prostate (ventral prostate, dorsolateral prostate), the seminal vesicle, the bladder, and the kidney were extracted and were each weighed. Moreover, the blood glucose level in the collected blood was measured.
The test substances and the dosage in the test system (rats having the urination disorder associated with diabetes) are as follows. • Normal group: citrate buffer 10 mL/kg (intraperitoneal administration), 0.5% P 10 mL/kg (oral administration) (n=10) • Solvent group (control group): STZ 50 mg/kg (intraperitoneal administration), 0.5% P 10 mL/kg (oral administration) (n=10) • Group A3: STZ 50 mg/kg (intraperitoneal administration), Compound A 3 mg/kg (oral administration) (n=10) • Group A10: STZ 50 mg/kg (intraperitoneal administration), Compound A 10 mg/kg (oral administration) (n=9) Urination Parameter:
The resulting data of the intravesical pressure, the voided volume, and the residual urine volume were analyzed, and the bladder capacity (mL), the residual urine volume (mL), and the urination efficiency (%) were determined as urination parameters in each urination. With respect to these urination parameters, the average value of two measurements was calculated and was taken as a measured value of each individual. […]

[2] = Group A3: 3 mg/kg oral, 4 weeks
[3] = Group A10: 10 mg/kg oral, 4 weeks

## CC(=O)O[C@]1(C(C)=O)C[C@@H](O)[C@H]2[C@@H]3C=C(Cl)C4=CC(=O)OC[C@]4(C)[C@H]3CC[C@@]21C [Compound A, 17α-acetoxy-6-chloro-15β-hydroxy-2-oxa-4,6-pregnadiene-3,20-dione]
Bladder specimen
  bladder contraction tension caused by square-wave electrical field stimulation or Carbachol and KCl: significantly strong or has a strong directionality
[1]; [2]
  Prostate, Dorsolateral prostate weight: 35.3 ± 7.8 mg/100 g body weight
  Dorsolateral prostate (atrophy rate): (44.2%)
  Seminal vesicle (atrophy rate): (41.8%)
  Ventral prostate (atrophy rate): (43.0%)
  Whole prostate (atrophy rate): (43.4%)
[1]; Group A3: 3 mg/kg oral, 4 weeks, male STZ rats
  Prostate, Ventral prostate weight: 62.2 ± 11.4 mg/100 g body weight
[1]; Group A3: 3 mg/kg, cystometry under anesthesia, FIG. 16
  urination efficiency: improved
[1]; Group A3: 3 mg/kg, cystometry under anesthesia
  bladder contraction force on urination by nomogram analysis: strong bladder contraction force
[1]; Group A3: 3 mg/kg, cystometry under anesthesia, vs solvent group, FIG. 15
  residual urine volume: significantly decreased
[1]; Group A3: 3 mg/kg, cystometry under awake condition, vs solvent group, FIG. 11
  bladder capacity: significantly reduced
[1]; Group A3: 3 mg/kg, cystometry under awake condition, vs solvent group, FIG. 12
  residual urine volume: significantly reduced
[1]; Group A3: 3 mg/kg, cystometry under awake condition, vs solvent group, FIG. 13
  urination efficiency: improved
[1]; Group A3 and Group A10: 3 and 10 mg/kg oral, 4 weeks
  therapeutic effect on diabetes (blood glucose level relative to the solvent group): no therapeutic effect on diabetes
[1]; [3]
  Prostate, Dorsolateral prostate weight: 28.8 ± 6.1 mg/100 g body weight
  Prostate, Ventral prostate weight: 53.1 ± 13.5 mg/100 g body weight
  Dorsolateral prostate (atrophy rate): (54.5%)
  Seminal vesicle (atrophy rate): (50.2%)
  Ventral prostate (atrophy rate): (51.3%)
  Whole prostate (atrophy rate): (52.5%)
[1]; Group A10: 10 mg/kg, cystometry under anesthesia, FIG. 16
  urination efficiency: improved
[1]; Group A10: 10 mg/kg, cystometry under anesthesia, P=0.0336, FIG. 14
  bladder capacity: reduced
[1]; Group A10: 10 mg/kg, cystometry under anesthesia
  bladder contraction force on urination by nomogram analysis: strong bladder contraction force
[1]; Group A10: 10 mg/kg, cystometry under anesthesia, vs solvent group, FIG. 15
  residual urine volume: significantly decreased
[1]; Group A10: 10 mg/kg, cystometry under awake condition, vs solvent group, FIG. 11
  bladder capacity: significantly reduced
[1]; Group A10: 10 mg/kg, cystometry under awake condition, vs solvent group, FIG. 12
  residual urine volume: significantly reduced
[1]; Group A10: 10 mg/kg, cystometry under awake condition, vs solvent group, P=0.0359, FIG. 13
  urination efficiency: significantly improved
